Test results: patent US20190388377A1, “COMPOSITIONS AND METHODS FOR THE TREATMENT OF LIVER DISEASES AND DISORDERS” (AXCELLA HEALTH INC., priority 2018, published 2019)

Tests used:
[1] = test system: primary human hepatocytes; test: Intracellular lipid accumulation after 72 h by fluorescence microscopy, PHH model for NASH, Example 2; type: cell-based; conditions: FFA+TNFα
Description: (§1) PHH from two healthy human donors (Lonza, TRL) were seeded on day 0 at density of 6e04 cells in 96 well optical microplates (Thermofisher) in hepatocyte plating media (William's E medium, WEM) (Gibco) supplemented with 10% heat-inactivated FBS (Atlanta Bio), 2 mM Glutamax (Gibco), and 0.2% Primocin (InVivoGen) and incubated for 6 hours at 37° C., 5% CO2. After 6 hours, cells were washed twice and incubated overnight at 37° C., 5% CO2 with Hepatocytes defined medium (Corning) supplemented with 2 mM Glutamax (Gibco), and 1× Penicillin/Streptomycin. On day 1, cells were washed twice and incubated for 24 h in the hepatocyte culture media in the same conditions described above.
(§2) On day 2, cells were washed twice with DPBS 1× (Gibco) to remove excess amino acids and maintained in pretreatment media (1×HMDB, a defined custom amino acid concentration based on the mean physiological concentrations in blood, in WEM±supplemental amino acids): • a. Amino acid-free WEM (US Biologicals) supplemented with 11 mM Glucose (Sigma), 0.272 mM Sodium Pyruvate (Sigma), 1× P/S (Gibco) and containing 1×HMDB with no supplemental amino acids; or • b. The same media described above 1×HMDB WEM with supplemental amino acid and amino acid combination treatments at various concentrations. Cells were maintained in the defined media (a. & b.) for 24 hours at 37° C., 5% CO2. The HMDB values are published in the Human Metabolome Database (Wishart D S, Tzur D, Knox C, et al., HMDB: the Human Metabolome Database. Nucleic Acids Res. 2007 January; 35 (Database issue):D521-6. 17202168; which is hereby incorporated by reference in its entirety). Co-Treatment with Free Fatty Acids and Amino Acids Combination
(§3) After 24 h pre-treatment, cells maintained in the pretreatment media±supplemental amino acids (section (a. & b.) described above) were exposed to free fatty acids (FFA) at 250 uM with a ratio of 2:1 (Oleate:Palmitate) supplemented with TNF-α (Thermofisher) at 1 ng/ml. Cells were incubated with the FFAs mixture (FFAs+TNF-α)±supplemental amino acids treatments for 24 hours at 37° C., 5% CO2. After 24 hours incubation, media was removed for cytokine analysis and replaced by fresh media containing the same conditions described above (FFAs mixture±supplemental amino acids treatments). Cells were incubated for an additional 48 hours for a total of 72 hours of FFA and TNF-α stimulation. After 72 hours of incubation, media was removed for albumin and urea analysis and the cells were fixed for nuclei and lipid staining.
After 72 hours, cells were washed twice in 100 ul PBS 1× (Gibco), fixed with 4% Paraformaldehyde, and washed twice with PBS 1× (100 ul). After fixation, lipids were stained with HCS LipidTOX Red Neutral (Thermofisher Scientific) diluted 1000× and nuclei were stained with Hoechst 3342 (Life Technologies) diluted to 4 ug/ml. The LipidTOX™ neutral lipid stain has an extremely high affinity for neutral lipid droplets that was detected by fluorescence microscopy using a high content imager (Molecular Devices). Data was normalized to the cell concentration determined by nuclei count. Images were analyzed and total lipid area was calculated using granularity module in MetaXpress 6 software. Data is reported as median fold change from control, statistical analysis was done using t-Test.

Albumin = Albumin secretion after 72 h by ELISA, PHH model, Example 2; type: cell-based, human; conditions: FFA+TNFα
Description: as §1, §2, §3
Albumin secretion was measured as a functionality test in primary human hepatocytes. Albumin was measured by ELISA (Human Albumin ELISA Quantitation set, Bethyl Laboratories) at 1/200 dilution in the sample diluent (Bethyl Laboratories). Data is reported as median fold change from control, statistical analysis was done using t-Test.

Human CCL2 (MCP-1) = test: MCP1 secretion by ELISA after 24 h, PHH model for NASH, Example 2; type: cell-based; conditions: FFA+TNFα
Description: as §1, §2, §3
Human CCL2 (MCP-1) was measured by ELISA (Human […] DuoSet ELISA, R&D Systems) at 1/20 dilution in 1× Reagent Diluent (Reagent Ancillary Kit 2, R&D Systems). MCP1 data in primary human hepatocytes treated with FFA+TNFα+supplemental amino acids was normalized to 1×HMDB WEM+FFA+TNFα baseline. Data is reported as median fold change from control, statistical analysis was done using t-Test.

[2] = test system: primary human hepatocytes; test: Intracellular triglyceride level after 72 h, colorimetric assay, Example 3; type: cell-based; conditions: FFAs+TNFα; two healthy donors
Description: On day 2, cells were washed twice with DPBS 1× (Gibco) and maintained in: • a. Amino acid-free WEM (US Biologicals) supplemented with 11 mM Glucose (Sigma), 0.272 mM Sodium Pyruvate (Sigma), 1× P/S (Gibco) and containing a defined custom amino acid concentration based on the mean physiological concentrations in blood (1× HMDB WEM (−) supplemental amino acids); or • b. The same media described above 1×HMDB WEM (+) supplemental amino acids treatment dose at a 30× of HMDB amino acid concentration. Cells were maintained in the defined amino acids media (a. & b.) for 24 hours at 37° C., 5% CO2. Co-Treatment with Free Fatty Acids and Various Amino Acids Supplemental Treatments
After 24 h pre-treatment, cells maintained in the same media (a. & b.) described above 1×HMDB±supplemental amino acids were now exposed to free fatty acids (FFA) at 250 uM with a ratio of 2:1 (Oleate:Palmitate) supplemented with TNF-α (Thermofisher) at 1 ng/ml or vehicle. Cells with the FFAs+TNFα mixture±amino acids treatments were incubated for 72 hours at 37° C., 5% CO2 with a media change after the first 24 hours.
After 72 hours, cells were washed once with cold PBS 1× (Gibco), scrapped off and collected into 75 ul of standard diluent (Cayman). Collected cells were vortexed for 1 min at a 2500 rpm speed followed by two times sonication (Elmasonic sonicator) for 1 min each. Supernatants were collected for triglyceride analysis after centrifugation at 1000 rpm for 10 min at 4° C. Intracellular triglyceride level was assessed using triglyceride colorimetric assay kit (Cayman) and following manufacturer's recommendations. Data was normalized to the total amount of protein using Bicinchoninic Acid Protein Assay Kit (Sigma). Data is reported as median fold change from FFAs+TNFα condition, statistical analysis was done using t-Test.

Urea = Urea production after 72 h by urea nitrogen (BUN) colorimetric assay, PHH model, Example 2; type: cell-based, human; conditions: FFA+TNFα
Description: as §1, §2, §3
Urea was measured as an indicator of hepatocytes functionality by urea nitrogen direct assay (StanBio). Cell supernatant was added to the BUN color reagent and BUN acid reagent at 1(color):2(acid) ratio. Incubate the cell supernatant with BUN reagent for 12 min at 100° C. then for 5 min at 4° C. Read absorbance at 520 nm. Data was normalized to the control. Data is reported as median fold change from control, statistical analysis was done using t-Test.

Procollagen III = Procollagen III secretion by ELISA, TGFβ1-stimulated hepatic stellate cells, Example 4; type: cell-based, human; conditions: HSC, three donors
Description: Primary human hepatic stellate cells were obtained from Samsara Sciences. Cells from three different donors were grown in Complete HSC Medium to ˜80% confluence in T75 or T150 flasks below passage 10 were seeded into sterile, collagen I coated, 96-well optical plastic microplates (ThermoScientific) and incubated overnight at 37° C., 5% CO2 in a humidified incubator in DMEM with 2% Fetal Bovine Serum and 1% Antimycotic. […] After 24 hours of stimulus, supernatant was removed and used to measure Procollagen III and cells were then washed and fixed with 4% paraformaldehyde for further staining. Procollagen III, an important biomarker of fibrosis was measured by ELISA (Human PCIII Elisa Kit, G-Biosciences) following the manufacturer's recommendations. Fixed cells with 4% paraformaldehyde were permeabilized with 0.1% Triton X-100 then immunostained for alpha SMA and labeled for EdU incorporation.

[3] = test system: alpha smooth muscle actin (αSMA); test: HSC activation by alpha SMA immunostaining, TGFβ1-stimulated hepatic stellate cells; type: cell-based, human
Description: Primary human hepatic stellate cells were obtained from Samsara Sciences. Cells from three different donors were grown in Complete HSC Medium to ˜80% confluence in T75 or T150 flasks below passage 10 were seeded into sterile, collagen I coated, 96-well optical plastic microplates (ThermoScientific) and incubated overnight at 37° C., 5% CO2 in a humidified incubator in DMEM with 2% Fetal Bovine Serum and 1% Antimycotic. […] After 24 hours of stimulus, supernatant was removed and used to measure Procollagen III and cells were then washed and fixed with 4% paraformaldehyde for further staining.
Procollagen III, an important biomarker of fibrosis was measured by ELISA (Human PCIII Elisa Kit, G-Biosciences) following the manufacturer's recommendations. Fixed cells with 4% paraformaldehyde were permeabilized with 0.1% Triton X-100 then immunostained for alpha SMA and labeled for EdU incorporation.
Cells were imaged using ImageXpress micro confocal high content imager (Molecular Devices). […] Image analysis was performed using MetaXpress version 6.2.3.733 (Molecular Devices).
Fixed cells immunostained for alpha smooth muscle actin (αSMA) were analyzed and stained area was normalized to total nuclei count. Fold change were calculated relative to the baseline amino acid (1×HMDB) condition stimulated with 3 ng/mL TGFβ1.

**Q.** How did the “lipid accumulation (in words)” value ([1]; hepatocyte donor 1) turn out when C[N+](C)(C)C[C@H](O)CC(=O)[O-] [Car, L-carnitine] was run?
**A.** reduced lipid accumulation

**Q.** And the “lipid accumulation (in words)” value ([1]; hepatocyte donor 2)?
**A.** reduced lipid accumulation but less than the previously described combinations

**Q.** What about the “albumin secretion (in words)” value (Albumin; hepatocyte donor 1) of the same compound?
**A.** did not reduce albumin secretion

**Q.** What about the “albumin secretion (in words)” value (Albumin; hepatocyte donor 2) of the same compound?
**A.** reduced albumin secretion

**Q.** What about the “MCP1 secretion (in words)” value (Human CCL2 (MCP-1); hepatocyte donor 1) of the same compound?
**A.** did not reduce MCP1 secretion

**Q.** What about the “MCP1 secretion (in words)” value (Human CCL2 (MCP-1); hepatocyte donor 2) of the same compound?
**A.** did not affect MCP1 secretion

**Q.** What about the “triglyceride level (in words)” value [2] of the same compound?
**A.** reduces triglyceride level but the effect was less pronounced than the combinations described previously

**Q.** What about the “urea production (in words)” value (Urea; hepatocyte donor 1) of the same compound?
**A.** No changes in urea production

**Q.** And the “urea production (in words)” value (Urea; hepatocyte donor 2)?
**A.** slightly reduced urea production

**Q.** And the “procollagen III secretion (in words)” value (Procollagen III)?
**A.** had no impact on procollagen III secretion

**Q.** And the “alpha SMA stained area (in words)” value [3]?
**A.** reduced the alpha SMA stained area
